# Experimental data: patent US8759579B2, “Cyclobutyl sulfones as notch sparing gamma secretase inhibitors” (Merck Sharp & Dohme Corp., priority 2008, dated 2014)
# Entries after “also recorded” stand apart in the source; their conditions may differ.
# Key:
# γ-secretase complex = test: Compound binding assay (displacement of tritiated γ-secretase inhibitor tracers); settings: semi-purified γ-secretase complex, increasing concentrations
# Description: Compound Binding: (Assay Quantitates In Vitro Displacement of Bound γ-Secretase Inhibitor Tracers)
# All radioligand binding experiments are performed using CHAPSO-solubilized HEK293 (gammaNRCF8) P2 membranes stably over expressing recombinant gamma secretase. For radioligand binding, solubilized enzyme is incubated in the presence of tritiated inhibitors. Nonspecific binding is determined by adding an excess of unlabeled inhibitor to the reaction, and serial dilutions of the tritiated ligands are used to obtain saturation binding isotherm. Bound ligand is separated from free ligand by adsorption of the enzyme complex to polyethyleneimine-coated glass fiber filter plates and rapid filtration in a cell harvester followed by washing. After drying plates, scintillant is added, and the plates are read on a Microplate Scintillation counter. Binding competition assay is performed by incubating serial dilutions of various inhibitors in the presence of 1 nM ^3H-labeled compound Reference Example L-458 (transition state inhibitor) or 4 nM ^3H-labeled compound Reference Example L-881 (non-transition state inhibitor). To determine the antagonist competitiveness of various inhibitors, respective ^3H tracer doss-response curves are analyzed in presence of different concentrations of these compounds.
# [1] = biological target: T1, pregnane X receptor (PXR) (Homo sapiens, UniProt O75469); test: PXR assay (CYP3A4-SEAP transactivation assay, PCSTA); assay type: cell-based; settings: HEP G2 cells
# T1 construct: expressed in transfected cells; host or cells: HEP G2
# T1 sequence (O75469 1-434): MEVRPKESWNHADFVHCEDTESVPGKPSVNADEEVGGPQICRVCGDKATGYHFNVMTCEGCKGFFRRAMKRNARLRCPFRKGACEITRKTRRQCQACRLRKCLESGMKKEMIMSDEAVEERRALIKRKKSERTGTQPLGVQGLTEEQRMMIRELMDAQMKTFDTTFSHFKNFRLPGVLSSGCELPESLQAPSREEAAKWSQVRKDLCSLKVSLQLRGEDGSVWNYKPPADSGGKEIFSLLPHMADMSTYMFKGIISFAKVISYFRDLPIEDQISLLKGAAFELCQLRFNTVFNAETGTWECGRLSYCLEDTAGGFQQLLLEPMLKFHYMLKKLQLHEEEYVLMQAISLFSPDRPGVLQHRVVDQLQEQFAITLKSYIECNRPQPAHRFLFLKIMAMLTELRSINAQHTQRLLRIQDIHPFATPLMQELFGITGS
# T1 sequence (P19793 1-462 partner): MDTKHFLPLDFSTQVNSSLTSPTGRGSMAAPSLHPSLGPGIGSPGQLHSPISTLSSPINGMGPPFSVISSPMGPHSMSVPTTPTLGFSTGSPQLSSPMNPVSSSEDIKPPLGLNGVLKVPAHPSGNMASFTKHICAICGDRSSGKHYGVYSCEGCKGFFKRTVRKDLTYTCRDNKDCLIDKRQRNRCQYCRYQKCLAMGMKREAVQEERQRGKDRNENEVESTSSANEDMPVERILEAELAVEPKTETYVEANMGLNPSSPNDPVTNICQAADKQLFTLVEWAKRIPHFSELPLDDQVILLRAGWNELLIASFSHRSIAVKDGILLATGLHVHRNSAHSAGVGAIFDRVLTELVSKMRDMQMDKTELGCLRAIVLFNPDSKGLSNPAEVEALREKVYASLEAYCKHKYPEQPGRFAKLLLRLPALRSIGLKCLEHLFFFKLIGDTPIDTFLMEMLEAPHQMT
# Source text: The CYP3A4-SEAP transactivation assay (PCSTA) effectively and rapidly evaluates compounds for their potential to induce cytochrome P450 CYP3A (human CYP3A4 or rat CYP3A1). The reporter construct contains regulatory regions from the CYP3A4 gene positioned just upstream of a secreted alkaline phosphatase (SEAP) gene. The human PXR nuclear receptor has been modified at the 5′-end so that methionine is the initiating amino acid replacing leucine found in the wild-type sequence. HEP G2 cells are transfected with the PXR plasmid (human or rat) and the reporter plasmid. Read-out for the induction of CYP3A4 consists of a SEAP calorimetric assay with para-nitro-phenyl phosphate (pNPP) as the substrate. Five point dose-response curves in duplicate are then generated with each point corresponding to the rate of conversion of pNPP to pNP by SEAP. For the human PCSTA, rifampicin is used as the positive control and 100% induction is based upon the maximum induction produced by rifampicin at 10 μM.
# Tg2576 mouse = settings: cited from earlier work
# [2] = covalent protein binding assay with liver microsomes; assay type: in vitro ADME; settings: radiolabeled compound incubated with human liver microsomes
# Description: MRK-560 and Example 2 were tested in a covalent protein binding assay which is predictive of drug toxicity. The potential of drug candidates to cause covalent binding to proteins is evaluated by incubation of the radiolabeled version of the compound in question with liver microsomes. A semi-automated method based on Brandel Harvester technique is then used to measure the formation of covalent adducts of the test compound to liver proteins binding (Ref. Day et. al, J Pharmacol Toxicol Methods. 52, 278-85, 2005).
# [3] = system: APP and Notch processing pathway; settings: literature report; cited from earlier work
# [4] = system: ε/S3-site cleavage of γ-secretase substrates (APP-GVP, NotchΔE-GVP, E-cadherin-GVP, CD44-GVP); test: ICD transactivation assay (intracellular domain release of γ-secretase substrates); assay type: cell-based; settings: HEK cells, 1 μM, 48 hours
# Source text: ICD Transactivation (Assay Quantitates Intracellular Domain Release of a Panel of γ-Secretase Substrates in Cell Lines)
# A Firefly luciferase based transactivation assay is used to measure inhibition of ε/S3-site cleavage of γ-secretase substrates. This assay involves the use of chimeric substrates harboring a GAL4/VP16 (GVP) transactivation domain fused to the intracellular domain (ICD): APP-GVP, NotchΔE-GVP, E-cadherin-GVP and CD44-GVP. Upon cleavage and release of ICDs, the GVP domain drives the expression of the luciferase gene under the control of the UAS promoter. In this assay, HEK cells were transiently co-transfected with the chimeric substrate along with a UAS promoter driven luciferase and β-galactosidase (transfection control). Upon cleavage by γ-secretase, the released ICD-GVP translocates to the nucleus to drive the expression of the UAS-luciferase gene. The activity of luciferase in these cells is directly proportional to the amount of γ-secretase-cleaved ICDs. Luciferase activity is determined by the standard techniques of luciferin addition to lysed cells and measurement of total luminescence. In addition, to account for the differences in transfection efficiencies an absorbance based β-galactosidase enzyme assay is performed to normalize the luminescence read-out.
# [5] = system: γ-secretase substrates NotchΔE, E-cadherin, SCN2b and CD43 in HEK293 cells; test: Full length γ-secretase substrates, immunoblot of cell lysates; assay type: cell-based; settings: titrated concentrations with TPA
# Description: Assessing Full Length γ-Secretase Substrates (Assay Qualitatively Assesses the Processing of a Panel of γ-Secretase Substrates)
# Cells are plated and treated overnight with titrated compound and the phorbol ester, TPA. Since all of the proteins undergo regulated membrane proteolysis characterized by an initial ectodomain shedding event followed by the intramembraneous cleavage of the […] fragment (CTF) by γ-secretase, TPA induces the initial cleavage event producing the substrate for γ-secretase. The effect of compounds on γ-secretase activity in relation to these substrates is measured by tracking the processing of the V5 tagged CTFs by Western blot analysis. Accumulation of the CTFs indicates inhibition of γ-secretase activity.
compound,measurement,setting,value
O=S(=O)(NC1CCC(c2cc(F)ccc2F)(S(=O)(=O)c2ccc(Cl)cc2)CC1)C(F)(F)F (stereo not shown) [MRK-560],displacement of tritiated tracer L-458 (transition state),γ-secretase complex,partial
same,displacement of tritiated tracer L-881 (non transition state),γ-secretase complex,full
same,EC50,[1],617 nM
same,effects on amyloid plaque deposition,Tg2576 mouse,beneficial effects on amyloid plaque deposition
same,toxicity related to changes in the Notch signaling pathway,Tg2576 mouse,absence of toxicity
same,covalent protein binding (human microsomes),[2],1308 pmol/mg
same,separation between in vitro inhibition of APP and Notch processing pathway,[3],little or no separation
same,ICD release of γ-secretase substrates (ε/S3-cleavage),[4],inhibited ICD release of all examined substrates
same,accumulation of CTFs (immunoblot),"[5]; HEK293 cells overexpressing E-cadherin, SCN2b, CD43","caused accumulation of CTFs; also recorded: SCN2b-, ECAD- and CD43-CTF accumulation"
same,NICD generation (immunoblot),[5]; HEK293 cells overexpressing NotchΔE,inhibited NICD generation
